Data: US10081662B2, “Modified relaxin B chain peptides” (The Florey Institute of Neuroscience and Mental Health, priority 2014, dated 2018)
Peptide text beside a SMILES is read from it.

Experiments:
RXFP1 = target: T1, RXFP1 (Homo sapiens, UniProt Q9HBX9); assay: Eu-labelled H2 relaxin competition binding, whole HEK-293T cells stably transfected with RXFP1; settings: RXFP1-expressing cells, Eu-labelled H2 relaxin; FIG. 2A
T1 construct: expressed in transfected cells; host or cells: HEK-293T
T1 sequence (Q9HBX9 1-757): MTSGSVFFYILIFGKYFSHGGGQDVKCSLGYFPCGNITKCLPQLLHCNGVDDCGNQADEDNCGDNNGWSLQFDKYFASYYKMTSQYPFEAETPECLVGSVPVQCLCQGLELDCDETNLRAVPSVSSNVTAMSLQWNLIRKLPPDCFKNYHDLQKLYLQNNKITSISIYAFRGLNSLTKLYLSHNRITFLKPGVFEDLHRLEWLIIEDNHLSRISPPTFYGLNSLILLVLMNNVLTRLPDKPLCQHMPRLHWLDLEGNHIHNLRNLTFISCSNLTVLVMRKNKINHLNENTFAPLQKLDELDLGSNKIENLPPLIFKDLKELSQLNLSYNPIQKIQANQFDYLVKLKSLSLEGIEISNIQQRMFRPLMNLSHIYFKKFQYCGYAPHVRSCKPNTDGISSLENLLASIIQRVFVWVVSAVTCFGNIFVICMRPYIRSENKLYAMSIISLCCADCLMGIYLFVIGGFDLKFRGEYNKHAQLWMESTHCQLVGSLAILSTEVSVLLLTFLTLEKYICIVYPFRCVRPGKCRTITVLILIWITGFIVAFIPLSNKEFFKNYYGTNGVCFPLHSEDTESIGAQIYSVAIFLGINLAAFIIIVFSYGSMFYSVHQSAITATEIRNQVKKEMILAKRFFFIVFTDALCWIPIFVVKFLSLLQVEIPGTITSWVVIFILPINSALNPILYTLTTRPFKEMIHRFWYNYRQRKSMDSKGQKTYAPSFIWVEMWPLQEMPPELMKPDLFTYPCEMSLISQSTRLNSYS
Procedure: Human embryonic kidney (HEK-293T) cells stably transfected with RXFP1 were cultured in RPMI 1640 medium supplemented with 10% fetal calf serum, 100 μg/ml penicillin, 100 μg/ml streptomycin and 2 mM L-glutamine and plated into 96-well pre-coated with poly-L-lysine for whole cell binding assays. Competition binding experiments were conducted with Eu^3+-labelled H2 relaxin (as per Shabanpoor et al., 2012, Biochem Biophys Res Commun. 420, 253-256) in the absence or presence of increasing concentrations of unlabelled relaxin-2 B chain derivatives. Nonspecific binding was determined with an excess of unlabelled peptides (500 nM H2 relaxin). Fluorescent measurements were recorded at an excitation wavelength of 340 nm and emission of 614 nm on a Victor plate reader (Perkin-Elmer Inc.). […] Statistical differences in pIC50 values were analyzed using one-way analysis of variance coupled to Newman Keul's multiple comparison test for multiple group comparisons in GraphPad Prism 6.

MMP-2 [1] = assay: MMP-2 expression by gelatin zymography in rat renal myofibroblasts; type: cell-based; settings: 16.80 nM, gelatin zymography and densitometry
Procedure: Renal myofibroblast cells natively expressing human RXFP1 were plated out onto 12-well plates with a density of 50 000 cells per well. Cells were treated with 16.8 nM H2-relaxin and 16.80 nM B7-33 C11.23S. Expression of basal MMP-2 levels was monitored with no treatment applied to wells (control). Each treatment was carried out in duplicates (n=5), for each replicate in Dulbecco's modified Eagle's medium (DMEM) containing 10% fetal calf serum, 2.2% HEPES buffer, 1% L-glutamine and 2% penicillin/strepticillin. The cells were incubated over 48 hrs in a humidified chamber with 5% CO2 at 37.8° C. temperature. Following this, media was aspirated off and experiment continued in serum free media (DMEM containing 2.2% HEPES buffer, 1% L-glutamine, 2% penicillin/strepicillin and 2% lactalbumin hydrolysate) for a further 24 hours in a humidified chamber with 5% CO2 at 37.8° C. […]. Media were then collected from various treatments and gel zymography was carried out.
For determination of MMP-2 expression within various treatments, zymographic assays of gelatinases were carried out. […] (0.05M Tris-HCl pH 7.4, 0.01M CaCl2, 5% Triton X-100, 0.02% sodium azide, 1 μM ZnCl2. The gels were then stained with 0.1% Cootnassie blue containing 40% 2-propanol and destained with 7% acetic acid before analysed by ImageJ software.

MMP-2 [2] = assay: MMP-2 expression by gelatin zymography in human cardiac fibroblasts; type: cell-based; settings: gelatin zymography and densitometry

**Q.** Which “Binding to RXFP1 (in words)” value (RXFP1) does the source give for `CC[C@H](C)[C@H](NC(=O)[C@H](C)NC(=O)[C@@H](NC(=O)[C@H](CCC(N)=O)NC(=O)[C@H](C)NC(=O)[C@H](CCCNC(=N)N)NC(=O)[C@@H](NC(=O)[C@H](CC(C)C)NC(=O)[C@H](CCC(=O)O)NC(=O)[C@H](CCCNC(=N)N)NC(=O)CNC(=O)[C@H](CO)NC(=O)[C@H](CC(C)C)NC(=O)[C@H](CCCCN)NC(=O)[C@@H](NC(=O)[C@@H](N)C(C)C)[C@@H](C)CC)C(C)C)[C@@H](C)CC)C(=O)N[C@@H](CO)C(=O)NCC(=O)N[C@@H](CCSC)C(=O)N[C@@H](CO)C(=O)N[C@H](C(=O)N[C@@H](Cc1c[nH]c2ccccc12)C(=O)N[C@@H](CO)C(=O)N[C@@H](CCCCN)C(=O)N[C@@H](CCCNC(=N)N)C(=O)N[C@@H](CO)C(=O)N[C@@H](CC(C)C)C(N)=O)[C@@H](C)O` [B7-33 C11.23S] (H-VIKLSGRELVRAQIAISGMSTWSKRSL-NH2) here?
**A.** Its value is “binds RXFP1, but with lower affinity than H2 relaxin”.

**Q.** And the “Induction of MMP-2 expression” value (MMP-2 [1])?
**A.** Its value is “levels similar to those induced by the native H2 relaxin”.

**Q.** What about the “Induction of MMP-2 expression” value (MMP-2 [2]) of the same compound?
**A.** Its value is “levels similar to those induced by the native H2 relaxin”.
